Measured values published in US10227349B2, “Pyrazolo[1,5-a]pyrimidine compound” (Eisai R&D Management Co., Ltd., priority 2016, dated 2019).

Tested on: tape stripping-induced skin barrier disruption in Hos: HR-1 mice
Assay: Mouse model of skin barrier disruption induced by tape stripping (TEWL)
Type: in vivo
Settings: TEWL 0 and 1 hour after stripping, average ± standard deviation, n=10
Experimental: The effect of the test compounds on the skin barrier functions was evaluated using a model with skin barrier disruption induced by tape stripping. Trans-epidermal water loss (TEWL) is an evaluation indicator of the skin barrier functions (Journal of Investigative Dermatology, 126, p 2074-2086 (2006)).
Seven-week old male Hos: HR-1 mice (Hoshino Laboratory Animals, Inc.) were subjected to the test (n=10 for each treatment). For oral administration, solutions of test compounds with different concentrations were prepared as follows. […]
(2) The solution of the test compound prepared in (1) was diluted with a 0.5% methylcellulose solution to prepare a solution of the test compound so that the concentration of the test compound was 0.3 mg/mL. TEWL was measured before the test compound was administered (termed as TEWL [pre]). After the TEWL [pre] was measured, the solution of the test compound adjusted as in (1) or (2) was administered orally (dose: 10 mL/kg). […] TEWL immediately after and 1 hour after the tape stripping were measured (termed as TEWL [0 hour], TEWL [1 hour], respectively), % Barrier recovery was calculated in accordance with the following formula. % Barrier Recovery={(TEWL [0 hour]−TEWL [1 hour])/(TEWL [0 hour]−TEWL [pre])}*100
The result was expressed as the average ± standard deviation of the % barrier recovery. […]

CO[C@H]1CN(C(=O)c2cc3nc(-c4cc(F)c(Cl)c(F)c4)cc(N(C)c4c(C)cccc4F)n3n2)CC[C@H]1CC(=O)O [Example 10, 2-((3R,4S)-1-(5-(4-chloro-3,5-difluorophenyl)-7-((2-fluoro-6-methylphenyl)(methyl)amino)pyrazolo[1,5-a]pyrimidine-2-carbonyl)-3-methoxypiperidin-4-yl)acetic acid]
% Barrier recovery (3 mg/kg orally 1 hour before tape stripping): 24.2 ± 8.1% | % Barrier recovery (10 mg/kg orally 1 hour before tape stripping, p < 0.05 versus Vehicle): 53.5 ± 4.9 %
